# Data: ChEMBL document CHEMBL3885861, “Open TG-GATES”
# Species: Rattus norvegicus
# Test: Open TG-GATES - Regimen: Single
# Type: toxicity, organism-based, Sprague-Dawley
# Design: regimen Single, gender Male, age 6 weeks
# Settings: in vivo, iv, route intravenous injection; for K / LDH / Na / PL / RALB / TBIL / TC / TG / TP / gamma-GTP / A/G / ALP / ALT / AST / BUN / CRE / Ca / Cl / DBIL / GLC / IP: tissue Plasma; for APTT / Bas / Eos / Fbg / Hb / Ht / Lym / MCH / MCHC / MCV / Mono / Neu / PT / Plat / RBC / Ret / WBC: tissue Blood; for KIDNEY_L / KIDNEY_R / KIDNEY_TOTAL: tissue Kidney; for LIVER: tissue Liver
# [1] = 3 mg/kg, 3 h, dose level Middle
# [2] = 3 mg/kg, 6 h, dose level Middle
# [3] = 3 mg/kg, 9 h, dose level Middle
# [4] = 3 mg/kg, 24 h, dose level Middle
structure (smiles),measurement,setting,value
C[C@@H]1C[C@@H]([C@H](O)CC2CC(=O)NC(=O)C2)C(=O)[C@@H](C)C1 [CYCLOHEXIMIDE],K,"1 mg/kg, 24 h, dose level Low",4.4 meq/L
same,LDH,"1 mg/kg, 24 h, dose level Low",149.2 IU/L
same,Na,"1 mg/kg, 24 h, dose level Low",139.8 meq/L
same,PL,"1 mg/kg, 24 h, dose level Low",110.4 mg/dL
same,RALB,"1 mg/kg, 24 h, dose level Low",2.6 g/dL
same,TBIL,"1 mg/kg, 24 h, dose level Low",0.028 mg/dL
same,TC,"1 mg/kg, 24 h, dose level Low",51.4 mg/dL
same,TG,"1 mg/kg, 24 h, dose level Low",169.6 mg/dL
same,TP,"1 mg/kg, 24 h, dose level Low",4.6 g/dL
same,gamma-GTP,"1 mg/kg, 24 h, dose level Low",1.6 IU/L
same,TERMINAL_BW,[1],221.6 g
same,APTT,[1],22.4 s
same,Bas,[1],0%
same,Eos,[1],0.6%
same,Fbg,[1],296.6 mg/dL
same,Hb,[1],13.7 g/dL
same,Ht,[1],41.1%
same,Lym,[1],73.2%
same,MCH,[1],21.6 pg
same,MCHC,[1],33.4%
same,MCV,[1],64.6 fL
same,Mono,[1],0.8%
same,Neu,[1],24.8%
same,PT,[1],17.4 s
same,Plat,[1],132.2 x10_4/uL
same,RBC,[1],636.8 x10_4/ul
same,Ret,[1],9.2%
same,WBC,[1],217.3 x10_2/uL
same,KIDNEY_L,[1],1 g
same,KIDNEY_R,[1],1 g
same,KIDNEY_TOTAL,[1],2 g
same,LIVER,[1],9.6 g
same,A/G,[1],1.3
same,ALP,[1],1376.2 IU/L
same,ALT,[1],58 IU/L
same,AST,[1],140.8 IU/L
same,BUN,[1],32.6 mg/dL
same,CRE,[1],0.1 mg/dL
same,Ca,[1],9.8 mg/dL
same,Cl,[1],109.4 meq/L
same,DBIL,[1],0.004 mg/dL
same,GLC,[1],170.4 mg/dL
same,IP,[1],9.8 mg/dL
same,K,[1],4.7 meq/L
same,LDH,[1],364.6 IU/L
same,Na,[1],142.2 meq/L
same,PL,[1],80 mg/dL
same,RALB,[1],2.8 g/dL
same,TBIL,[1],0.018 mg/dL
same,TC,[1],59.4 mg/dL
same,TG,[1],52.4 mg/dL
same,TP,[1],5.1 g/dL
same,gamma-GTP,[1],2 IU/L
same,TERMINAL_BW,[2],221.4 g
same,APTT,[2],25.3 s
same,Bas,[2],0%
same,Eos,[2],0.4%
same,Fbg,[2],276 mg/dL
same,Hb,[2],14.1 g/dL
same,Ht,[2],42.1%
same,Lym,[2],60.4%
same,MCH,[2],21.2 pg
same,MCHC,[2],33.6%
same,MCV,[2],63.1 fL
same,Mono,[2],1%
same,Neu,[2],38%
same,PT,[2],21.1 s
same,Plat,[2],123.7 x10_4/uL
same,RBC,[2],668 x10_4/ul
same,Ret,[2],8.3%
same,WBC,[2],191.1 x10_2/uL
same,KIDNEY_L,[2],1 g
same,KIDNEY_R,[2],1 g
same,KIDNEY_TOTAL,[2],2 g
same,LIVER,[2],8.6 g
same,A/G,[2],1.4
same,ALP,[2],1008.6 IU/L
same,ALT,[2],63 IU/L
same,AST,[2],134.2 IU/L
same,BUN,[2],29.2 mg/dL
same,CRE,[2],0.1 mg/dL
same,Ca,[2],7.2 mg/dL
same,Cl,[2],104.2 meq/L
same,DBIL,[2],0.006 mg/dL
same,GLC,[2],139.6 mg/dL
same,IP,[2],11.6 mg/dL
same,K,[2],4.2 meq/L
same,LDH,[2],232.2 IU/L
same,Na,[2],138.2 meq/L
same,PL,[2],62.8 mg/dL
same,RALB,[2],2.8 g/dL
same,TBIL,[2],0.014 mg/dL
same,TC,[2],39.6 mg/dL
same,TG,[2],66.4 mg/dL
same,TP,[2],4.9 g/dL
same,gamma-GTP,[2],1.8 IU/L
same,TERMINAL_BW,[3],215.9 g
same,APTT,[3],27.9 s
same,Bas,[3],0%
same,Eos,[3],0.6%
same,Fbg,[3],255.2 mg/dL
same,Hb,[3],13.6 g/dL
same,Ht,[3],41%
same,Lym,[3],56.4%
same,MCH,[3],21.1 pg
same,MCHC,[3],33.1%
same,MCV,[3],63.7 fL
same,Mono,[3],1.2%
same,Neu,[3],41.8%
same,PT,[3],22.1 s
same,Plat,[3],117.3 x10_4/uL
same,RBC,[3],643 x10_4/ul
same,Ret,[3],7.8%
same,WBC,[3],199.4 x10_2/uL
same,KIDNEY_L,[3],1 g
same,KIDNEY_R,[3],1 g
same,KIDNEY_TOTAL,[3],1.9 g
same,LIVER,[3],8.6 g
same,A/G,[3],1.5
same,ALP,[3],1011.2 IU/L
same,ALT,[3],51.4 IU/L
same,AST,[3],111 IU/L
same,BUN,[3],20.8 mg/dL
same,CRE,[3],0.1 mg/dL
same,Ca,[3],8 mg/dL
same,Cl,[3],105.6 meq/L
same,DBIL,[3],0.012 mg/dL
same,GLC,[3],151.6 mg/dL
same,IP,[3],8.9 mg/dL
same,K,[3],3.8 meq/L
same,LDH,[3],189.4 IU/L
same,Na,[3],139.4 meq/L
same,PL,[3],75.8 mg/dL
same,RALB,[3],2.8 g/dL
same,TBIL,[3],0.012 mg/dL
same,TC,[3],47.2 mg/dL
same,TG,[3],70.2 mg/dL
same,TP,[3],4.9 g/dL
same,gamma-GTP,[3],1 IU/L
same,TERMINAL_BW,[4],220.9 g
same,APTT,[4],30.4 s
same,Bas,[4],0%
same,Eos,[4],0%
same,Fbg,[4],293.6 mg/dL
same,Hb,[4],13.2 g/dL
same,Ht,[4],39.9%
same,Lym,[4],66.4%
same,MCH,[4],20.3 pg
same,MCHC,[4],33%
same,MCV,[4],61.6 fL
same,Mono,[4],1.4%
same,Neu,[4],30.8%
same,PT,[4],18.9 s
same,Plat,[4],112.9 x10_4/uL
same,RBC,[4],647.6 x10_4/ul
same,Ret,[4],5.3%
same,WBC,[4],276.2 x10_2/uL
same,KIDNEY_L,[4],1 g
same,KIDNEY_R,[4],1 g
same,KIDNEY_TOTAL,[4],2 g
same,LIVER,[4],9.6 g
same,A/G,[4],1.3
same,ALP,[4],739.4 IU/L
same,ALT,[4],25.2 IU/L
same,AST,[4],65.8 IU/L
same,BUN,[4],11 mg/dL
same,CRE,[4],0.2 mg/dL
